Source: patent US20130137126A1, “USE OF A BETA-G[…] FOR THE DETECTION AND/OR IDENTIFICATION OF C. DIFFICILE” (BIOMERIEUX, priority 2010, published 2013)

How the values were obtained:
Format in all cases: cell-based
Clostridium difficile [1] = test: Activating effect of Ar-beta-glucoside compounds on beta-glucosidase activity, colony coloration on agar media with CHE-beta-glucoside; settings: equimolar compounds with CHE-beta-glucoside 0.3 g/l; 24 h
Procedure: Six strains of Clostridium difficile were tested on the media comprising a compound which could act as a beta-glucosidase activator in these strains. That of the strain bearing the reference 08 01 091 is 056. The compounds tested as beta-glucosidase activators are as follows: • Arbutin; • O-methyl b-glucoside; • Cellobiose; • Salicin; • 4 Aminophenyl-b-glucoside; • 4-methyl-umbelliferone-b-glucoside; • aesculin.
They were tested at concentrations which make it possible to have the same molarity for each of the compounds.
The media used are prepared on the basis of the C. difficile chromID® medium indicated supra, for example 1, to which is added the CHE-beta-glucoside substrate at 0.3 g/l and, respectively, one of the compounds according to the following table:
(§1) The media are distributed into Petri dishes.
(§2) The seeding is performed from 48 h pre-cultures at 37° C. in anaerobiosis.
(§3) A suspension in physiological water at 0.5 McF is carried out and then the strains are seeded with the 10 μl calibrated loop.
Readings are performed after 24 h of incubation at 37° C. and in anaerobiosis.
(§4) Reading scale of the enzymatic activity/ coloration • 0=no activity • 0.5=very pale coloration • 1=clear low-intensity coloration • 2=distinct medium-intensity coloration, • 3=presence of an intense coloration, • 4=presence of a very intense coloration.
(§5) The coloration obtained with this substrate is grey up to an intensity of 1, and black for the other values.

Clostridium difficile [2] = test: Activating effect of arbutin on a beta-glucosidase substrate (CHE-beta-glucoside), colony coloration on agar media; settings: 24 h
Procedure: Eight strains of Clostridium difficile, from the Applicant's collection, were tested on media comprising arbutin at different concentrations with or without CHE-beta-glucoside present. The reading of the dishes is then carried out at 24 h. The media is made up as follows:
C. difficile ChromID® base common to all of the media:
Then addition of arbutin and/or CHE-beta-glucoside, according to the media:
as §1, §2, §3
Readings are performed after 24 h of incubation at 37° C. in anaerobiosis.
as §4, §5

Clostridium difficile [3] = test: Activating effect of arbutin on various beta-glucosidase substrates, colony coloration on agar media; settings: substrates DHF-, alizarin- and 3HF-beta-glucoside; 24 h and 48 h
Procedure: The eight strains of Clostridium difficile tested in Example 1 were tested on media comprising DHF-beta-glucoside (media A), alizarin-beta-glucoside (media B) or 3HF-beta-glucoside (Media C) and an increasing concentration of arbutin.
The reading of the dishes is then carried out at 24 h and 48 h.
The media used are prepared on the basis of the C. difficile chromID® medium indicated supra, for example 1, to which arbutin is added according to the following table:
According to the substrates, the media are therefore as follows: • DHF-beta-glucoside at 400 mg/L (media TA, 1A, 2A and 3A) • Alizarin-beta-glucoside at 50 mg/L (media TB, 1 B, 2B and 3B) • 3HF-beta-glucoside at 300 mg/L (media TC, 1C, 2C and 3C)
as §1, §2, §3
Readings are performed after 24 h and 48 h of incubation at 37° C. in anaerobiosis.
as §4

SMILES	activating effect on beta-glucosidase of Clostridium difficile (Clostridium difficile [1])	activation of the beta-glucosidase (intensification of coloration, grey to black) (Clostridium difficile [2]; arbutin added in the presence of CHE-beta-glucoside)	coloration of the colonies (Clostridium difficile [2]; arbutin alone, without CHE-beta-glucoside)	coloration intensity in the presence of arbutin (Clostridium difficile [3])
Nc1ccc(O[C@@H]2O[C@H](CO)[C@@H](O)[C@H](O)[C@H]2O)cc1 [4-Aminophenyl-beta-glucoside]	observed activation of beta-glucosidase	–	–	–
OC[C@H]1O[C@@H](Oc2ccc(O)cc2)[C@H](O)[C@@H](O)[C@@H]1O [Arbutin, hydroquinone-beta-D-glucoside]	observed activation of beta-glucosidase	an activation of the beta-glucosidase is noted	does not allow coloration of the colonies to be obtained	an improvement in the coloration intensity is noted regardless of the substrate used
CO[C@@H]1O[C@H](CO)[C@@H](O)[C@H](O)[C@H]1O [O-methyl-beta-glucoside, reference compound]	do not have an activating effect	–	–	–
O=c1ccc2cc(O[C@@H]3O[C@H](CO)[C@@H](O)[C@H](O)[C@H]3O)c(O)cc2o1 [aesculin, 6,7-dihydroxy-coumarin-beta-glucoside]	observed activation of beta-glucosidase	–	–	–
O=C[C@H](O)[C@@H](O)[C@H](O[C@@H]1O[C@H](CO)[C@@H](O)[C@H](O)[C@H]1O)[C@H](O)CO [cellobiose, 4-O-beta-D-glucopyranosyl-D-glucose, reference compound]	do not have an activating effect	–	–	–
OCc1ccccc1O[C@@H]1O[C@H](CO)[C@@H](O)[C@H](O)[C@H]1O [salicin, 2-(hydroxymethyl)-phenyl-beta-D-glucoside]	observed activation of beta-glucosidase	–	–	–
